Data as given in patent US5409933A, “Quinoline derivatives and processes for preparing the same” (priority 1993, dated 1995).
Counter-ions that a name gives are not always drawn. Like-named read-outs stand apart in the source and are kept apart here.

Key:
Assay in all cases: In Vitro Anti-Bacterial Activity Test (MIC, agar dilution)
Assay type in all cases: cell-based
Escherichia coli DC0 = conditions: Muller-Hinton agar, 37° C., 18 hours, read-out: MIC
Outline: (§1)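 Muller-Hinton agar dilution method. Inoculum 10^7 C.F.U./ml; 37° C., 18 h. Endpoint: minimum inhibitory concentration by growth inspection. Ciprofloxacin control.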

[1] = tested on: Staphylococcus aureus SG511; conditions: Staphylococcus aureus SG511; Muller-Hinton agar, 37° C., 18 hours; read-out: MIC
Outline: as §1

Escherichia coli TEM = conditions: Escherichia coli, 18 h, Muller-Hinton agar, 37° C.
Outline: (§2)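 Read-out is visual growth inhibition on compound-containing Muller-Hinton agar, giving the MIC. Bacteria (10^7 C.F.U./ml) incubate 18 hours at 37° C.; ciprofloxacin is included as comparator drug.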

[2] = tested on: Streptococcus pyogenes 77A
Outline: as §1

[3] = tested on: Streptococcus faecium MD8b; conditions: Enterococcus faecium, Muller-Hinton agar, 37° C., 18 hours, read-out: MIC
Outline: as §1

[4] = tested on: Pseudomonas aeruginosa 9027; conditions: Muller-Hinton agar, 37° C., 18 hours, read-out: MIC
Outline: as §1

[5] = tested on: Klebsiella aerogenes 1522E; conditions: Klebsiella aerogenes, 1522E, 18 h
Outline: as §1

[6] = tested on: Staphylococcus aureus 503; conditions: Staphylococcus aureus 503; Muller-Hinton agar, 37° C., 18 hours; read-out: MIC
Outline: as §1

Escherichia coli DC2 = tested on: Escherichia coli DC2
Outline: as §1

Escherichia coli 1507E = conditions: Muller-Hinton agar, 37° C.
Outline: as §1

Klebsiella oxytoca 1082E = conditions: Klebsiella oxytoca 1082E; Muller-Hinton agar, 37° C., 18 hours; read-out: MIC
Outline: as §1

[7] = tested on: Enterobacter cloacae 1321E; conditions: Enterobacter cloacae 1321E; Muller-Hinton agar, 37° C., 18 hours; read-out: MIC
Outline: as §1

[8] = tested on: Pseudomonas aeruginosa 1592E; conditions: Muller-Hinton agar, 37° C., 18 hours, read-out: MIC
Outline: as §1

Escherichia coli 078 = tested on: Escherichia coli 078
Outline: as §1

[9] = tested on: Staphylococcus aureus 285; conditions: Staphylococcus aureus 285, Muller-Hinton agar, 37° C., 18 hours
Outline: as §1

[10] = tested on: Streptococcus pyogenes 308A; conditions: Muller-Hinton agar, 37° C., 18 hours, read-out: MIC
Outline: as §1

[11] = tested on: Pseudomonas aeruginosa 1771M; conditions: Pseudomonas aeruginosa, 1771M, 18 h, Muller-Hinton agar, 37° C.
Outline: as §1

Enterobacter cloacae P99 = conditions: Enterobacter cloacae, P99, 18 h
Outline: as §2

[12] = tested on: Pseudomonas aeruginosa 1771; conditions: Pseudomonas aeruginosa 1771; Muller-Hinton agar, 37° C., 18 hours; read-out: MIC
Outline: as §1

Salmonella typhimurium = conditions: Salmonella enterica; Salmonella typhimurium; Muller-Hinton agar, 37° C., 18 hours; read-out: MIC
Outline: as §1

[13] = Streptococcus pyogenes 77A, Muller-Hinton agar, 37° C., 18 hours, read-out: MIC
[14] = Staphylococcus aureus, 285, 18 h, read-out: MIC
[15] = Klebsiella aerogenes 1522E, Muller-Hinton agar, 37° C., 18 hours, read-out: MIC
[16] = Escherichia coli 078, Muller-Hinton agar, 37° C., 18 hours, read-out: MIC

CCOC(=O)C(C#N)C(=O)c1cn(C2CC2)c2c(Cl)c(N3CC=C(CNC)C3)c(F)cc2c1=O (centres unmarked) [Example 40, 1-cyclopropyl-6-fluoro-8-chloro-7-(3-methylaminomethyl-2,5-dihydropyrrol-1-yl)-3-(2-cyano-2-ethoxycarbonylacetyl)-1,4-dihydro-4-oxoquinoline hydrochloride]
MIC (Escherichia coli DC0): 6.25 µg/mL
MIC [1]: 1.56 µg/mL
MIC (Escherichia coli TEM): 0.391 µg/mL
MIC [2, 13]: 12.5 µg/mL
MIC [3]: 12.5 µg/mL
MIC [4]: 12.5 µg/mL
MIC [5]: 0.391 µg/mL
MIC [6]: 1.56 µg/mL
MIC (Escherichia coli DC2; Escherichia coli DC2, Muller-Hinton agar, 37° C., 18 hours, read-out: MIC): 3.12 µg/mL
MIC (Escherichia coli 1507E; Escherichia coli, 1507E, 18 h): 0.781 µg/mL
MIC (Klebsiella oxytoca 1082E): 0.049 µg/mL
MIC [7]: 0.049 µg/mL
MIC [8]: 6.25 µg/mL
MIC (Escherichia coli 078; Escherichia coli, 078, 18 h): 0.098 µg/mL
MIC [9, 14]: 3.12 µg/mL
MIC [10]: 25 µg/mL
MIC [11]: 3.12 µg/mL
MIC (Enterobacter cloacae P99): 0.391 µg/mL
MIC [12]: 6.25 µg/mL
MIC (Salmonella typhimurium): 0.195 µg/mL

O=C(C[N+](=O)[O-])c1cn(C2CC2)c2cc(N3CCNCC3)c(F)cc2c1=O [Example 4, 1-cyclopropyl-6-fluoro-7-(piperazin-1-yl)-3-(2-nitroacetyl)-1,4-dihydro-4-oxoquinoline hydrochloride]
MIC (Escherichia coli DC0): 0.195 µg/mL
MIC [1]: 0.195 µg/mL
MIC (Escherichia coli TEM): 0.013 µg/mL
MIC ([2]; Streptococcus pyogenes, 77A, 18 h): 0.781 µg/mL
MIC [3]: 0.781 µg/mL
MIC [4]: 0.195 µg/mL
MIC [5, 15]: 0.013 µg/mL
MIC [6]: 0.781 µg/mL
MIC (Escherichia coli DC2; Escherichia coli, DC2, 18 h): 0.391 µg/mL
MIC (Escherichia coli 1507E; Escherichia coli, 1507E, 18 h): 0.007 µg/mL
MIC (Klebsiella oxytoca 1082E): < 0.002 µg/mL
MIC [7]: < 0.002 µg/mL
MIC [8]: 0.195 µg/mL
MIC (Escherichia coli 078; [16]): < 0.002 µg/mL
MIC ([9]; hydrochloride): 0.391 µg/mL
MIC [10]: 3.12 µg/mL
MIC [11]: 0.098 µg/mL
MIC (Enterobacter cloacae P99): 0.007 µg/mL
MIC [12]: 0.195 µg/mL
MIC (Salmonella typhimurium): 0.007 µg/mL

NC1CCN(c2c(F)cc3c(=O)c(C(=O)C[N+](=O)[O-])cn(C4CC4)c3c2Cl)C1 (centres unmarked) [Example 11, 1-cyclopropyl-6-fluoro-8-chloro-7-(3-aminopyrrolidin-1-yl)-3-(2-nitroacetyl)-1,4-dihydro-4-oxoquinoline hydrochloride]
MIC (Escherichia coli DC0): 0.049 µg/mL
MIC [1]: 0.013 µg/mL
MIC (Escherichia coli TEM): < 0.002 µg/mL
MIC [2, 13]: 0.098 µg/mL
MIC [3]: 0.098 µg/mL
MIC [4]: 0.195 µg/mL
MIC [5, 15]: 0.007 µg/mL
MIC [6]: 0.025 µg/mL
MIC (Escherichia coli DC2; Escherichia coli, DC2, 18 h): 0.013 µg/mL
MIC (Escherichia coli 1507E; 18 hours, read-out: MIC): < 0.002 µg/mL
MIC (Klebsiella oxytoca 1082E): < 0.002 µg/mL
MIC [7]: < 0.002 µg/mL
MIC [8]: 0.195 µg/mL
MIC (Escherichia coli 078; [16]): < 0.002 µg/mL
MIC [9, 14]: 0.025 µg/mL
MIC [10]: 0.195 µg/mL
MIC [11]: 0.025 µg/mL
MIC (Enterobacter cloacae P99): < 0.002 µg/mL
MIC [12]: 0.098 µg/mL
MIC (Salmonella typhimurium): < 0.002 µg/mL

CCOC(=O)C(C(=O)OCC)C(=O)c1cn(C2CC2)c2c(Cl)c(N3CC=C(CNC)C3)c(F)cc2c1=O [Example 28, 1-cyclopropyl-6-fluoro-8-chloro-7-(3-methylaminomethyl-2,5-dihydropyrrol-1-yl)-3-(2,2-diethoxycarbonylacetyl)-1,4-dihydro-4-oxoquinoline hydrochloride]
MIC (Escherichia coli DC0): 0.195 µg/mL
MIC [1]: 0.004 µg/mL
MIC (Escherichia coli TEM): 0.013 µg/mL
MIC [2, 13]: 0.049 µg/mL
MIC [3]: 0.049 µg/mL
MIC [4]: 0.781 µg/mL
MIC [5, 15]: 0.013 µg/mL
MIC [6]: < 0.002 µg/mL
MIC (Escherichia coli DC2; Escherichia coli, DC2, 18 h): 0.049 µg/mL
MIC (Escherichia coli 1507E; Escherichia coli, 1507E, 18 h): 0.013 µg/mL
MIC (Klebsiella oxytoca 1082E): 0.007 µg/mL
MIC [7]: < 0.002 µg/mL
MIC [8]: 0.391 µg/mL
MIC (Escherichia coli 078; [16]): < 0.002 µg/mL
MIC [9, 14]: 0.007 µg/mL
MIC [10]: 0.098 µg/mL
MIC [11]: 0.195 µg/mL
MIC (Enterobacter cloacae P99): < 0.002 µg/mL
MIC [12]: 0.781 µg/mL
MIC (Salmonella typhimurium): 0.013 µg/mL
